Experimental data as given in patent US6964949B2, “Pharmaceutical compositions for promoting the growth of gram-positive bacilli and increasing the acidity in the vagina and the use thereof” (Shanghai Jiao Da Onlly Co., Ltd., priority 2000, dated 2005).

Key:
[1] = test system: L. crispatus, C. albicans, C. tropicalis; assay: Fluconazole in Sucrose Broth, Group 2 co-culture: turbidity and Gram-stained smear; format: cell-based; design: key to Turbidity, Group 2: ++: The cultural fluid was heavily turbid; +: The cultural fluid was turbid; +/−: The turbidity of the cultural fluid was not affirmative; key to Microbes (Gram-stained smear), Group 2: Lb: Lactobacilli; Candida; conditions: 18 hours, 37° C., candle jar
Protocol: (§1) • 1. Materials: • Sucrose Broth: 10.0% sucrose, 2.0% yeast extract, K2HPO40.5%, MgSO40.05%, MnSO40.1%, pH adjusted to 6.2, sterilized. • Anti-fungi drug: Fluconazole • Clinically isolated Lactobacillus strains: Lactobacillus acidophilus, Lactobacillus crispatus, and Lactobacillus jensenii. Three lactobacillus suspensions were prepared separately from each of these three lactobacillus strains. • Clinically isolated Candida strains: Candida albicans and Candida tropicalis. Two Candidal suspensions were prepared separately from each of these two candida strains. • 2.
(§2) • There were six tubes in each group and each tube contained 2ml Sucrose Broth and different concentration of Fluconazole, as shown in Table 1. • The turbidity values of three lactobacillus suspensions and two Candidal suspensions were tested by Turbidimeter and adjusted to 0.3. 50 ul of each prepared lactobacillus suspension and Candidal suspension were separately added into tubes according to Table 1. • All of these experimental tubes were put into candle jars as soon as the lactobacillus suspensions and candidal suspensions were added, and then incubated at 37° C. for 18 hours. • After 18 hours' incubation the turbidity of each tube was examined and Gram-stained smear of cultural fluid of corresponding tube was observed under microscopy to check microbes. Results

[2] = test system: C. albicans, C. tropicalis; assay: Fluconazole in Sucrose Broth, Group 4 (Candidal group): turbidity and Gram-stained smear; format: cell-based, Candida albicans, Candida tropicalis; design: key to Turbidity, Group 4: ++: The cultural fluid was heavily turbid; +: The cultural fluid was turbid; +/−: The turbidity of the cultural fluid was not affirmative; conditions: 18 hours; for Turbidity, Group 4: 37° C., candle jar
Protocol: as §1, §2

[3] = test system: three Lactobacillus strains; assay: Fluconazole in Sucrose Broth: growth of the three Lactobacillus strains (Groups 1-3); format: cell-based; conditions: 400 ug/ml of Fluconazole, 18 hours
Protocol: as §1, §2

[4] = test system: L. acidophilus, C. albicans, C. tropicalis; assay: Fluconazole in Sucrose Broth, Group 1 co-culture: turbidity and Gram-stained smear; format: cell-based; design: key to Turbidity, Group 1: ++: The cultural fluid was heavily turbid; +: The cultural fluid was turbid; +/−: The turbidity of the cultural fluid was not affirmative; key to Microbes (Gram-stained smear), Group 1: Lb: Lactobacilli; Candida; conditions: 18 hours, 37° C., candle jar
Protocol: as §1, §2

[5] = test system: L. jensenii, C. albicans, C. tropicalis; assay: Fluconazole in Sucrose Broth, Group 3 co-culture: turbidity and Gram-stained smear; format: cell-based, Lactobacillus jensenii, Candida albicans, Candida tropicalis; design: key to Turbidity, Group 3: ++: The cultural fluid was heavily turbid; +: The cultural fluid was turbid; +/−: The turbidity of the cultural fluid was not affirmative; key to Microbes (Gram-stained smear), Group 3: Lb: Lactobacilli; Candida; conditions: 18 hours, 37° C., candle jar
Protocol: as §1, §2

[6] = test system: L. crispatus, C. albicans, C. tropicalis; assay: Terconazole in Maltose Broth, Group 2 co-culture: turbidity and Gram-stained smear; format: cell-based; design: key to Turbidity, Group 2: ++: The cultural fluid was heavily turbid; +: The cultural fluid was turbid; +/−: The turbidity of the cultural fluid was not affirmative; key to Microbes (Gram-stained smear), Group 2: Lb: Lactobacilli; Candida; conditions: 18 hours, 37° C., candle jar
Protocol: (§3) • 1. Materials: • Maltose Broth: 10.0% maltose, 2.0% yeast extract, K2HPO4 0.5%, MgSO4 0.05%, MnSO40.1%, pH adjusted to 6.2, sterilized. • Anti-fungi drug: Terconazole • Clinically isolated Lactobacillus strains: Lactobacillus acidophilus, Lactobacillus crispatus, and Lactobacillus jensenii. Three lactobacillus suspensions were prepared separately from each of these three lactobacillus strains.
(§4) Clinically isolated Candida strains: Candida albicans and Candida tropicalis. Two Candidal suspensions were prepared separately from each of these two candida strains. • 2.
as §2, with “2 ml Maltose” for “2ml Sucrose”, “Terconazole,” for “Fluconazole,”

[7] = test system: three Lactobacillus strains; assay: Terconazole in Maltose Broth: growth of the three Lactobacillus strains (Groups 1-3); format: cell-based; conditions: 400 ug/ml of Terconazole, 18 hours
Protocol: as §3, §4
as §2, with “2 ml Maltose” for “2ml Sucrose”, “Terconazole,” for “Fluconazole,”

[8] = test system: C. albicans, C. tropicalis; assay: Terconazole in Maltose Broth, Group 4 (Candidal group): turbidity and Gram-stained smear; format: cell-based, Candida albicans, Candida tropicalis; design: key to Turbidity, Group 4: ++: The cultural fluid was heavily turbid; +: The cultural fluid was turbid; +/−: The turbidity of the cultural fluid was not affirmative; conditions: 18 hours; for Turbidity, Group 4: 37° C., candle jar
Protocol: as §3, §4
as §2, with “2 ml Maltose” for “2ml Sucrose”, “Terconazole,” for “Fluconazole,”

[9] = test system: L. acidophilus, C. albicans, C. tropicalis; assay: Terconazole in Maltose Broth, Group 1 co-culture: turbidity and Gram-stained smear; format: cell-based; design: key to Turbidity, Group 1: ++: The cultural fluid was heavily turbid; +: The cultural fluid was turbid; +/−: The turbidity of the cultural fluid was not affirmative; key to Microbes (Gram-stained smear), Group 1: Lb: Lactobacilli; Candida; conditions: 18 hours, 37° C., candle jar
Protocol: as §3, §4
as §2, with “2 ml Maltose” for “2ml Sucrose”, “Terconazole,” for “Fluconazole,”

[10] = test system: L. jensenii, C. albicans, C. tropicalis; assay: Terconazole in Maltose Broth, Group 3 co-culture: turbidity and Gram-stained smear; format: cell-based, Lactobacillus jensenii, Candida albicans, Candida tropicalis; design: key to Turbidity, Group 3: ++: The cultural fluid was heavily turbid; +: The cultural fluid was turbid; +/−: The turbidity of the cultural fluid was not affirmative; key to Microbes (Gram-stained smear), Group 3: Lb: Lactobacilli; Candida; conditions: 18 hours, 37° C., candle jar
Protocol: as §3, §4
as §2, with “2 ml Maltose” for “2ml Sucrose”, “Terconazole,” for “Fluconazole,”

## OC(Cn1cncn1)(Cn1cncn1)c1ccc(F)cc1F [Fluconazole]
[1]; Fluconazole 25 ug/ml
  Microbes (Gram-stained smear), Group 2: Lb
  Turbidity, Group 2: ++
[1]; Fluconazole 50 ug/ml
  Microbes (Gram-stained smear), Group 2: Lb
  Turbidity, Group 2: ++
[1]; Fluconazole 100 ug/ml
  Microbes (Gram-stained smear), Group 2: Lb
  Turbidity, Group 2: ++
[1]; Fluconazole 200 ug/ml
  Microbes (Gram-stained smear), Group 2: Lb
  Turbidity, Group 2: ++
[1]; Fluconazole 400 ug/ml
  Microbes (Gram-stained smear), Group 2: Lb
  Turbidity, Group 2: ++
[2]; 25 ug/ml or greater concentration of Fluconazole
  growth of the two Candidal strains: inhibited the growth
[2]; Fluconazole 25 ug/ml
  Turbidity, Group 4: +/−
[2]; Fluconazole 50 ug/ml
  Turbidity, Group 4: +/−
[2]; Fluconazole 100 ug/ml
  Turbidity, Group 4: +/−
[2]; Fluconazole 200 ug/ml
  Turbidity, Group 4: +/−
[2]; Fluconazole 400 ug/ml
  Turbidity, Group 4: +/−
[3]
  growth of three Lactobacillus strains: didn't inhibit the growth
[4]; Fluconazole 25 ug/ml
  Microbes (Gram-stained smear), Group 1: Lb
  Turbidity, Group 1: ++
[4]; Fluconazole 50 ug/ml
  Microbes (Gram-stained smear), Group 1: Lb
  Turbidity, Group 1: ++
[4]; Fluconazole 100 ug/ml
  Microbes (Gram-stained smear), Group 1: Lb
  Turbidity, Group 1: ++
[4]; Fluconazole 200 ug/ml
  Microbes (Gram-stained smear), Group 1: Lb
  Turbidity, Group 1: ++
[4]; Fluconazole 400 ug/ml
  Microbes (Gram-stained smear), Group 1: Lb
  Turbidity, Group 1: ++
[5]; Fluconazole 25 ug/ml
  Microbes (Gram-stained smear), Group 3: Lb
  Turbidity, Group 3: ++
[5]; Fluconazole 50 ug/ml
  Microbes (Gram-stained smear), Group 3: Lb
  Turbidity, Group 3: ++
[5]; Fluconazole 100 ug/ml
  Microbes (Gram-stained smear), Group 3: Lb
  Turbidity, Group 3: ++
[5]; Fluconazole 200 ug/ml
  Microbes (Gram-stained smear), Group 3: Lb
  Turbidity, Group 3: ++
[5]; Fluconazole 400 ug/ml
  Microbes (Gram-stained smear), Group 3: Lb
  Turbidity, Group 3: ++

## CC(C)N1CCN(c2ccc(OCC3COC(Cn4cncn4)(c4ccc(Cl)cc4Cl)O3)cc2)CC1 (centres unmarked) [Terconazole]
[6]; Terconazole 25 ug/ml
  Microbes (Gram-stained smear), Group 2: Lb
  Turbidity, Group 2: ++
[6]; Terconazole 50 ug/ml
  Microbes (Gram-stained smear), Group 2: Lb
  Turbidity, Group 2: ++
[6]; Terconazole 100 ug/ml
  Microbes (Gram-stained smear), Group 2: Lb
  Turbidity, Group 2: ++
[6]; Terconazole 200 ug/ml
  Microbes (Gram-stained smear), Group 2: Lb
  Turbidity, Group 2: ++
[6]; Terconazole 400 ug/ml
  Microbes (Gram-stained smear), Group 2: Lb
  Turbidity, Group 2: ++
[7]
  growth of three Lactobacillus strains: didn't inhibit the growth
[8]; 25 ug/ml or greater concentration of Terconazole
  growth of the two Candidal strains: inhibited the growth
[8]; Terconazole 25 ug/ml
  Turbidity, Group 4: +/−
[8]; Terconazole 50 ug/ml
  Turbidity, Group 4: +/−
[8]; Terconazole 100 ug/ml
  Turbidity, Group 4: +/−
[8]; Terconazole 200 ug/ml
  Turbidity, Group 4: +/−
[8]; Terconazole 400 ug/ml
  Turbidity, Group 4: +/−
[9]; Terconazole 25 ug/ml
  Microbes (Gram-stained smear), Group 1: Lb
  Turbidity, Group 1: ++
[9]; Terconazole 50 ug/ml
  Microbes (Gram-stained smear), Group 1: Lb
  Turbidity, Group 1: ++
[9]; Terconazole 100 ug/ml
  Microbes (Gram-stained smear), Group 1: Lb
  Turbidity, Group 1: ++
[9]; Terconazole 200 ug/ml
  Microbes (Gram-stained smear), Group 1: Lb
  Turbidity, Group 1: ++
[9]; Terconazole 400 ug/ml
  Microbes (Gram-stained smear), Group 1: Lb
  Turbidity, Group 1: ++
[10]; Terconazole 25 ug/ml
  Microbes (Gram-stained smear), Group 3: Lb
  Turbidity, Group 3: ++
[10]; Terconazole 50 ug/ml
  Microbes (Gram-stained smear), Group 3: Lb
  Turbidity, Group 3: ++
[10]; Terconazole 100 ug/ml
  Microbes (Gram-stained smear), Group 3: Lb
  Turbidity, Group 3: ++
[10]; Terconazole 200 ug/ml
  Microbes (Gram-stained smear), Group 3: Lb
  Turbidity, Group 3: ++
[10]; Terconazole 400 ug/ml
  Microbes (Gram-stained smear), Group 3: Lb
  Turbidity, Group 3: ++
